# Columns and labels:
# [1] = test system: glucagon levels in hepatic portal blood; test: Glucagon levels in hepatic portal blood of fasted rats (RIA); format: in vivo, rat
# Description: (§1) In this evaluation the procedures described by W. A. Murphy et al. Endocrinology 109:491-495 (1980), were employed.
# (§2) For measurement of effects on insulin and glucagon levels, rats were fasted 27-30 hours and anesthetized with NEMBUTAL® (5 mg per 100 g body wt). Exactly 21 minutes after NEMBUTAL® injection 0.5 mL of saline or saline containing test peptide was injected into the jugular vein over a 1 minute period. Five minutes later, 3.5 mL of blood were quickly drawn from the hepatic portal vein after rapid laparotomy. Blocking effects of analog on exogenous somatostatin were examined by simultaneous injection of both peptides. Plasma insulin levels were determined using matched insulin RIA kits purchased from Cambridge Nuclear, Billerica, MA. Plasma glucagon was determined using Unger 30K antibody and ^125 I-glucagon (Cambridge Nuclear) as the tracer.
# GH levels in the rat = test: Growth hormone (GH) levels in NEMBUTAL-anesthetized, stimulated rats (RIA); format: in vivo; settings: mean ± SE
# Description: as §1
# In growth hormone (GH) experiments, male rats (Charles Rivers) were anesthetized with NEMBUTAL® (5 mg per 100 g/BW) which also served to maintain stimulated plasma GH levels. Exactly 30 minutes after the rats were anesthetized, 0.5 mL of saline or the test peptide in saline was administered as a sc bolus. A 1 mL blood sample was drawn from the jugular vein 15 minutes after the injection. For examining blocking effects of the analog on somatostatin, the cyclic peptide was given 5 minutes prior to somatostatin. GH levels were determined using NIADDKD rat GH RIA components.
# [2] = test system: insulin levels in hepatic portal blood; test: Insulin levels in hepatic portal blood of fasted rats (RIA); format: in vivo, rat
# Description: as §1, §2
smiles,measurement,setting,value
C[C@H](N)C(=O)NCC(=O)N[C@H]1CSSC[C@@H](C(=O)O)NC(=O)[C@H](CO)NC(=O)[C@H]([C@@H](C)O)NC(=O)[C@H](Cc2ccccc2)NC(=O)[C@H]([C@@H](C)O)NC(=O)[C@H](CCCCN)NC(=O)[C@H](Cc2c[nH]c3ccccc23)NC(=O)[C@H](Cc2ccccc2)NC(=O)[C@H](Cc2ccccc2)NC(=O)[C@H](CC(N)=O)NC(=O)[C@H](CCCCN)NC1=O [Somatostatin],Glucagon (Mean ± SE),"[1]; Table III Experiment 1, fasted rats, 0.4 μg/100 g iv, portal blood 5 min later, saline 80 ± 5",64 ± 3 pg/mL
same,Glucagon (Mean ± SE),"[1]; Table III Experiment 1, fasted rats, 2.0 μg/100 g iv, saline 80 ± 5",46 ± 4 pg/mL
same,Glucagon (Mean ± SE),"[1]; Table III Experiment 1, second saline set, fasted rats, 1.0 μg/100 g iv, saline 94 ± 9",78 ± 7 pg/mL
same,Glucagon (Mean ± SE),"[1]; Table III Experiment 2, fasted rats, 1.0 μg/100 g iv, saline 45 ± 3",18 ± 7 pg/mL
same,GH,"GH levels in the rat; Table I Experiment 1, fed rats, 0.2 μg/100 g body weight sc, blood 15 min after injection, saline 277 ± 40",146 ± 14 ng/mL
same,GH,"GH levels in the rat; Table I Experiment 1, fed rats, 0.6 μg/100 g body weight sc, blood 15 min after injection, saline 277 ± 40",78 ± 26 ng/mL
same,GH,"GH levels in the rat; Table I Experiment 2, fasted rats, 0.4 μg/100 g body weight, saline 403 ± 85",107 ± 13 ng/mL
same,Insulin (Mean ± SE),"[2]; Table III Experiment 1, fasted rats, 0.4 μg/100 g iv, portal blood 5 min later, saline 67 ± 11",57 ± 3 μU/mL
same,Insulin (Mean ± SE),"[2]; Table III Experiment 1, fasted rats, 2.0 μg/100 g iv, saline 67 ± 11",28 ± 11 μU/mL
same,Insulin (Mean ± SE),"[2]; Table III Experiment 1, second saline set, fasted rats, 1.0 μg/100 g iv, saline 46 ± 5",11 ± 2 μU/mL
